ChEMBL document CHEMBL3608215, “Natural β-Dihydroagarofuran-Type Sesquiterpenoids as Cognition-Enhancing and Neuroprotective Agents from Medicinal Plants of the Genus Celastrus” (2015)
Activity calls are given as the source filed them. The rule behind the calls is not given here.

How the values were obtained:
Mus musculus [1] = test: Cognition-enhancing effect in ICR mouse assessed as reduction of scopolamine-induced escape latency and number of errors at 20 mg/kg, ig treated 1 hr before scopolamine challenge by passageway water maze test; format: functional, organism-based
Mus musculus [2] = test: Cognition-enhancing effect in ICR mouse assessed as reduction of scopolamine-induced escape latency and number of errors at 0.1 mg/kg, ig treated 1 hr before scopolamine challenge by passageway water maze test; format: functional, organism-based
Mus musculus [3] = test: Cognition-enhancing effect in ig dosed ICR mouse assessed as reduction of scopolamine-induced escape latency and number of errors treated 1 hr before scopolamine challenge by passageway water maze test; format: functional, organism-based
SH-SY5Y = test: Neuroprotective activity in human SH-SY5Y cells assessed as production against amyloid beta (25 to 35)-induced cell death by measuring cell viability at 1 uM after 24 hrs by MTT assay; format: functional
Mus musculus [4] = test: Cognition-enhancing effect in ICR mouse assessed as reduction of scopolamine-induced escape latency and number of errors at 10 to 40 mg/kg, ig treated 1 hr before scopolamine challenge by passageway water maze test; format: functional, organism-based

Row | SMILES | Activity (Mus musculus [1]) | Activity (Mus musculus [2]) | other results
1 | CC(=O)O[C@H]1C[C@@H]2[C@@H](OC(=O)c3ccccc3)[C@]3(OC2(C)C)[C@H](C)CC[C@H](OC(=O)c2ccccc2)[C@@]13C | Active | Active | –
2 | CC(=O)O[C@H]1CC[C@@H](C)[C@@]23C[C@@H](C[C@H](OC(=O)/C=C/c4ccccc4)[C@]12C)C(C)(C)O3 | – | Active | Activity (Mus musculus [3]): Dose-dependent effect
3 | CC(=O)O[C@H]1[C@@H](OC(=O)/C=C/c2ccccc2)C[C@@H](C)[C@@]23C[C@@H](C[C@H](OC(=O)/C=C/c4ccccc4)[C@]12C)C(C)(C)O3 | – | – | Activity (SH-SY5Y): 76.3%
4 | C/C=C1\[C@H]2C=C(C)C[C@]1(N)c1ccc(=O)[nH]c1C2 | – | Active | –
5 | CC(=O)O[C@H]1C[C@@H]2[C@@H](OC(C)=O)[C@]3(OC2(C)C)[C@H](C)CC[C@H](OC(=O)c2ccccc2)[C@@]13C | Active | Active | –
6 | CC(=O)O[C@@H]1[C@H]2C[C@H](OC(=O)/C=C/c3ccccc3)[C@]3(C)[C@@H](OC(C)=O)[C@@H](OC(=O)c4ccccc4)C[C@@H](C)[C@@]13OC2(C)C | – | – | Activity (SH-SY5Y): 79.6%
7 | CC(=O)OC[C@@]12[C@@H](OC(C)=O)CC[C@@H](C)[C@]13OC(C)(C)[C@H](C[C@@H]2OC(=O)c1ccccc1)[C@H]3OC(C)=O | Active | Active | –
8 | CC(=O)O[C@@H]1[C@@H]2[C@@H](OC(C)=O)[C@]3(OC2(C)C)[C@H](C)CC[C@H](OC(C)=O)[C@@]3(C)[C@H]1OC(=O)c1ccccc1 | – | – | Activity (Mus musculus [4]): inactive
